From patent US10308689B2, “Dengue virus (DV) polypeptide sequences, T cell epitopes and methods and uses thereof” (LA JOLLA INSTITUTE FOR ALLERGY AND IMMUNOLOGY, priority 2010, dated 2019)
Ends that are not written are not given here.

System: PBMC of healthy adult blood donors from Colombo, Sri Lanka
Experiment: Ex vivo IFNγ ELISPOT, HLA-matched PBMC of Sri Lankan blood donors
Assay type: cell-based, human
Parameters: Total Response per epitope: unit not given here
Details: for # donors responded: number of donors responding to the epitope; for T cell response [SFC]: ex vivo IFNγ SFC/10^6 PBMC; for # of responders: responding donors, HLA allele(s)
[1] = restricting HLA allele and serotype as given
[2] = total over responding donors, restricting HLA allele and serotype as given
[3] = IFNγ ELISPOT response summed over responding donors, per epitope
[4] = HLA-matched PBMC, proteome-wide screen

| Compound | # donors responded [1] | Total Response per epitope [2] | T cell response [SFC] (per epitope) | # of responders | Total Response per epitope [3] | # donors responded [4] |
| --- | --- | --- | --- | --- | --- | --- |
| CC(C)C[C@H](NC(=O)[C@H](CC(C)C)NC(=O)[C@@H](NC(=O)[C@H](C)NC(=O)[C@H](C)N)C(C)C)C(=O)N[C@@H](CC(C)C)C(=O)N[C@H](C(=O)N[C@H](C(=O)N[C@@H](Cc1c[nH]cn1)C(=O)N[C@@H](Cc1ccc(O)cc1)C(=O)O)[C@@H](C)O)C(C)C | 2 | 393.3 | – | – | – | – |
| CC(C)C[C@H](NC(=O)[C@@H](NC(=O)[C@@H](NC(=O)[C@H](CC(C)C)NC(=O)[C@@H]1CCCN1C(=O)CNC(=O)[C@@H](NC(=O)[C@H](C)N)[C@@H](C)O)[C@@H](C)O)[C@@H](C)O)C(=O)N[C@@H](Cc1c[nH]c2ccccc12)C(=O)O | 1 | 275.0 | 275 | 1 | – | – |
| CSCC[C@H](NC(=O)[C@H](CCSC)NC(=O)[C@H](CC(C)C)NC(=O)[C@@H](N)CS)C(=O)N[C@@H](CCSC)C(=O)N[C@@H](CC(C)C)C(=O)N1CCC[C@H]1C(=O)N[C@@H](C)C(=O)N[C@H](C(=O)N[C@@H](CC(C)C)C(=O)O)[C@@H](C)O | 1 | 78.3 | – | – | – | – |
| CC(C)C[C@H](NC(=O)[C@@H](NC(=O)[C@H](C)NC(=O)[C@H](CCC(=O)O)NC(=O)CNC(=O)[C@H](CCC(N)=O)NC(=O)[C@@H](NC(=O)[C@@H]1CCCN1C(=O)[C@@H](N)CS)[C@@H](C)O)[C@@H](C)O)C(=O)O | 1 | 295.0 | – | – | – | – |
| CC(C)C[C@H](NC(=O)[C@@H](NC(=O)[C@H](C)NC(=O)[C@H](CCC(=O)O)NC(=O)CNC(=O)[C@H](CCC(N)=O)NC(=O)[C@@H](NC(=O)[C@@H]1CCCN1C(=O)[C@@H](N)CS)[C@@H](C)O)C(C)C)C(=O)O | 2 | 385.0 | – | – | – | – |
| CC[C@H](C)[C@H](NC(=O)[C@@H]1CCCN1C(=O)[C@@H](N)CC(=O)O)C(=O)N1CCC[C@H]1C(=O)N[C@@H](Cc1ccc(O)cc1)C(=O)N[C@@H](CC(=O)O)C(=O)N1CCC[C@H]1C(=O)N[C@@H](CCCCN)C(=O)N[C@@H](Cc1ccccc1)C(=O)O | 1 | 38.3 | – | – | – | – |
| CC(C)[C@H](NC(=O)[C@H](C)NC(=O)[C@@H](N)CCC(=O)O)C(=O)N[C@@H](CCC(=O)O)C(=O)N[C@@H](CC(=O)O)C(=O)N[C@@H](CO)C(=O)N[C@@H](CCCNC(=N)N)C(=O)N[C@@H](Cc1ccccc1)C(=O)N[C@@H](Cc1c[nH]c2ccccc12)C(=O)N[C@@H](CCC(=O)O)C(=O)O | 1 | 248.3 | – | – | – | – |
| CC(C)C[C@H](NC(=O)[C@H](CCC(N)=O)NC(=O)CNC(=O)[C@@H]1CCCN1C(=O)[C@@H](N)CCC(=O)O)C(=O)N[C@@H](CCCCN)C(=O)N[C@@H](CC(C)C)C(=O)N[C@@H](CC(N)=O)C(=O)N[C@@H](Cc1c[nH]c2ccccc12)C(=O)N[C@@H](Cc1ccccc1)C(=O)O | 5 | 581.7 | – | – | – | – |
| CSCC[C@H](NC(=O)[C@H](CC(C)C)NC(=O)[C@H](CCCCN)NC(=O)[C@H](CCCCN)NC(=O)[C@@H](NC(=O)CNC(=O)[C@H](CCC(=O)O)NC(=O)[C@H](CCCCN)NC(=O)[C@@H]1CCCN1C(=O)[C@@H](N)CCC(=O)O)[C@@H](C)O)C(=O)O | 3 | 928.3 | – | – | – | – |
| CC[C@H](C)[C@H](N)C(=O)N[C@H](C(=O)N[C@@H](CC(C)C)C(=O)N[C@@H](CCC(=O)O)C(=O)N[C@@H](Cc1ccccc1)C(=O)N[C@@H](Cc1ccccc1)C(=O)N[C@@H](CC(C)C)C(=O)N[C@@H](CCSC)C(=O)N[C@H](C(=O)O)C(C)C)[C@@H](C)CC | 1 | 143.3 | – | – | – | – |
| CC[C@H](C)[C@H](N)C(=O)N1CCC[C@H]1C(=O)N[C@@H](Cc1ccccc1)C(=O)N[C@@H](CCC(=O)O)C(=O)N[C@H](C(=O)N[C@@H](CCSC)C(=O)N[C@@H](CC(=O)O)C(=O)N[C@@H](CC(C)C)C(=O)N[C@@H](CCC(=O)O)C(=O)N[C@@H](CCCCN)C(=O)O)[C@@H](C)CC | 5 | 1500.0 | – | – | – | – |
| CC[C@H](C)[C@H](N)C(=O)N1CCC[C@H]1C(=O)N[C@@H](CCSC)C(=O)N[C@@H](C)C(=O)N[C@H](C(=O)N[C@@H](Cc1ccc(O)cc1)C(=O)NCC(=O)N[C@@H](Cc1c[nH]c2ccccc12)C(=O)N[C@@H](CC(N)=O)C(=O)N[C@@H](CC(C)C)C(=O)O)[C@@H](C)O | 2 | 456.7 | – | – | – | – |
| CC[C@H](C)[C@H](N)C(=O)N1CCC[C@H]1C(=O)N[C@@H](CCSC)C(=O)N[C@@H](CO)C(=O)N[C@H](C(=O)N[C@@H](Cc1ccc(O)cc1)C(=O)NCC(=O)N[C@@H](Cc1c[nH]c2ccccc12)C(=O)N[C@@H](CC(N)=O)C(=O)N[C@@H](CC(C)C)C(=O)O)[C@@H](C)O | 3 | 320.0 | – | – | – | – |
| CC[C@H](C)[C@H](N)C(=O)N1CCC[C@H]1C(=O)N[C@@H](CCSC)C(=O)N[C@H](C(=O)NCC(=O)N1CCC[C@H]1C(=O)N[C@@H](CC(C)C)C(=O)N[C@H](C(=O)N[C@@H](C)C(=O)NCC(=O)O)C(C)C)[C@@H](C)O | 5 | 1160.0 | – | – | – | – |
| CC[C@H](C)[C@H](N)C(=O)N[C@@H](CCC(N)=O)C(=O)N1CCC[C@H]1C(=O)N[C@@H](Cc1ccccc1)C(=O)N[C@@H](CC(C)C)C(=O)N[C@@H](C)C(=O)N[C@@H](CC(C)C)C(=O)NCC(=O)N[C@@H](Cc1ccccc1)C(=O)O | 1 | 85.0 | – | – | – | – |
| CC[C@H](C)[C@H](N)C(=O)N[C@H](C(=O)N[C@@H](CC(C)C)C(=O)N[C@@H](CC(C)C)C(=O)N[C@@H](CS)C(=O)N[C@@H](CC(C)C)C(=O)N[C@H](C(=O)N1CCC[C@H]1C(=O)N[C@H](C(=O)N[C@H](C(=O)O)C(C)C)[C@@H](C)O)[C@@H](C)CC)[C@@H](C)O | 1 | 63.3 | – | – | – | – |
| CC(C)C[C@H](NC(=O)[C@H](CCCNC(=N)N)NC(=O)[C@@H]1CCCN1C(=O)[C@@H](N)CCCCN)C(=O)N[C@@H](CS)C(=O)N[C@H](C(=O)N[C@@H](CCCNC(=N)N)C(=O)N[C@@H](CCC(=O)O)C(=O)N[C@@H](CCC(=O)O)C(=O)N[C@@H](Cc1ccccc1)C(=O)O)[C@@H](C)O | 1 | 350.0 | 350 | 1 | – | – |
| CC(C)C[C@H](NC(=O)[C@H](CCCNC(=N)N)NC(=O)[C@@H]1CCCN1C(=O)[C@@H](N)CC(N)=O)C(=O)N[C@@H](CS)C(=O)N[C@H](C(=O)N[C@@H](CCCNC(=N)N)C(=O)N[C@@H](CCC(=O)O)C(=O)N[C@@H](CCC(=O)O)C(=O)N[C@@H](Cc1ccccc1)C(=O)O)[C@@H](C)O | 1 | 365.0 | 365 | 1 | – | – |
| CC[C@H](C)[C@H](NC(=O)[C@H](CC(C)C)NC(=O)[C@H](CS)NC(=O)[C@H](CC(C)C)NC(=O)[C@H](CC(C)C)NC(=O)[C@@H](N)[C@@H](C)O)C(=O)N1CCC[C@H]1C(=O)N[C@H](C(=O)N[C@H](C(=O)O)C(C)C)[C@@H](C)O | – | 53.3 | – | – | – | – |
| CC[C@H](C)[C@H](NC(=O)[C@H](CCCCN)NC(=O)[C@H](CO)NC(=O)[C@H](CO)NC(=O)CN)C(=O)N[C@@H](CCCNC(=N)N)C(=O)N[C@@H](Cc1c[nH]c2ccccc12)C(=O)N[C@H](C(=O)N[C@H](C(=O)N[C@@H](CCC(=O)O)C(=O)O)C(C)C)[C@@H](C)CC [GSSKIRWIVE] | 2 | 111.7 | – | – | – | – |
| CSCC[C@H](NC(=O)[C@H](CC(C)C)NC(=O)[C@@H](NC(=O)[C@H](CCC(=O)O)NC(=O)[C@@H](N)CC(C)C)[C@@H](C)O)C(=O)N[C@@H](CC(C)C)C(=O)N[C@H](C(=O)N[C@@H](C)C(=O)N[C@@H](CC(C)C)C(=O)O)C(C)C [LETLMLVAL] | – | – | – | – | 103.3 | 1 |
| CSCC[C@H](N)C(=O)N[C@H](C(=O)N[C@@H](CCC(N)=O)C(=O)N[C@@H](CCCCN)C(=O)N[C@@H](C)C(=O)N[C@@H](CCCNC(=N)N)C(=O)N[C@@H](CC(N)=O)C(=O)N[C@@H](C)C(=O)N[C@@H](CC(C)C)C(=O)O)[C@@H](C)O [MTQKARNAL] | – | – | – | – | 268.3 | 2 |
| CSCC[C@H](NC(=O)[C@H](C)NC(=O)CNC(=O)[C@H](CCC(=O)O)NC(=O)[C@@H](N)CCC(N)=O)C(=O)N[C@@H](Cc1c[nH]cn1)C(=O)N[C@@H](CO)C(=O)N[C@@H](C)C(=O)N[C@@H](CC(C)C)C(=O)O [QEGAMHSAL] | – | – | – | – | 48.3 | 1 |
| CSCC[C@H](NC(=O)[C@H](C)NC(=O)CNC(=O)[C@H](CCC(=O)O)NC(=O)[C@@H](N)CCC(N)=O)C(=O)N[C@@H](Cc1c[nH]cn1)C(=O)N[C@H](C(=O)N[C@@H](C)C(=O)N[C@@H](CC(C)C)C(=O)O)[C@@H](C)O [QEGAMHTAL] | – | – | – | – | 40.0 | 1 |
| ATGPVLTLW | 2 | 390.0 | 390 | 2 | – | – |
| CLIPTAMAF | 1 | 66.7 | 67 | 1 | – | – |
| DPRRCLKPV | 2 | 556.7 | – | – | – | – |
| DTTPFGOOR | – | – | 3260 | 8 | – | – |
